Measurements as given in patent US12319684B2 (Sanford Burnham Prebys Medical Discovery Institute, priority 2014, dated 2025).
Where two headings read alike, the source gives them in different places.

Target: T1, human apelin receptor (APJ, AGTRL-1, APLNR) (Homo sapiens, UniProt P35414)
T1 construct: host or cells: Chinese hamster ovary cells
T1 sequence (P35414 1-380): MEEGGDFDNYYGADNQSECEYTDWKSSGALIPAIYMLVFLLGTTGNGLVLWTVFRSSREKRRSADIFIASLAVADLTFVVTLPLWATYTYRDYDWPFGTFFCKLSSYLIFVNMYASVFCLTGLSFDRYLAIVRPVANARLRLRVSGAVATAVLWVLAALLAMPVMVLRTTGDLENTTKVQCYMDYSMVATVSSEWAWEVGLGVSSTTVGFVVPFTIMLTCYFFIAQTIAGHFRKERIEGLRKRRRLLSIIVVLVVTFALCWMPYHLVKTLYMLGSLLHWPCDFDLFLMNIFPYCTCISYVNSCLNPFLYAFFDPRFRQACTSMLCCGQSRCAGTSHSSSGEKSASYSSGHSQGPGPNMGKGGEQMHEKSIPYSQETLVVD
Assay: APJ cAMP cell-based assay (forskolin-stimulated CHO cells, enzyme fragment complementation)
Conditions: for Emax: CHO, 0.5 h, read-out: APJ cAMP % resp (efficacy)
Experimental: The assays disclosed herein were performed using cell lines from DiscoveRx, Inc.
Biological activity was determined in a cell-based assay. This assay detects activation of the receptor by reporting on intracellular cyclic adenosine monophosphate (cAMP) level. Chinese hamster ovary cells engineered to express a stably integrated human apelin receptor (APJ, AGTRL-1, APLNR), were plated into the wells of a microtiter plate. Cells were stimulated with forskolin to increase intracellular cAMP. Immediately following, compounds were added at a range of final concentrations 0.0-100 μM, in DMSO (not to exceed a final DMSO concentration of >1% v/v), and allowed to incubate with the cells for 0.5 h. At the end of the incubation, cells were lysed to stop APJ signaling, and cAMP was quantified using a commercially available assay kit that applies enzyme fragment complementation technology and bioluminescence, in a competitive ELISA format.
Compound efficacy (% resp) is reported as a percentage of the maximal apelin-13 response at 1 nM (control).

[1] = CHO cells expressing human APJ, forskolin-stimulated, 0.5 h incubation, 50% of control (apelin-13, 1 nM) response, read-out: APJ cAMP EC50
[2] = percentage of the maximal apelin-13 response at 1 nM (control)

COc1ccccc1-n1c(SCc2nc(=O)c3ccccc3[nH]2)nnc1-c1cccs1 [Example 52, 2-[4-(2-Methoxy-phenyl)-5-thiophen-2-yl-4H-[1,2,4]triazol-3-ylsulfanylmethyl]-1H-quinazolin-4-one]
EC50: 0.24 µM
Emax: 113%

COc1ccccc1-n1c(SCc2nc3cc(C)ccc3c(=O)[nH]2)nnc1-c1cccs1 [Example 53, 2-(((4-(2-methoxyphenyl)-5-(thiophen-2-yl)-4H-1,2,4-triazol-3-yl)thio)methyl)-7-methylquinazolin-4(3H)-one]
EC50 [1]: 1.03 µM
Emax [2]: 59%

COc1ccccc1-n1c(SCc2nc(=O)c3cc(C#N)ccc3[nH]2)nnc1-c1cccs1 [Example 54, 2-[4-(2-Methoxy-phenyl)-5-thiophen-2-yl-4H-[1,2,4]triazol-3-ylsulfanylmethyl]-4-oxo-1,4-dihydro-quinazoline-6-carbonitrile]
EC50 [1]: 0.0313 µM
Emax [2]: 118%

COc1ccccc1-n1c(SCc2nc(=O)c3cc(F)ccc3[nH]2)nnc1-c1cccs1 [Example 55, 6-Fluoro-2-[4-(2-methoxy-phenyl)-5-thiophen-2-yl-4H-[1,2,4]triazol-3-ylsulfanylmethyl]-1H-quinazolin-4-one]
EC50 [1]: 0.009 µM
Emax [2]: 109%

COc1ccccc1-n1c(SCc2nc(=O)c3c(F)cccc3[nH]2)nnc1-c1cccs1 [Example 56, 5-Fluoro-2-[4-(2-methoxy-phenyl)-5-thiophen-2-yl-4H-[1,2,4]triazol-3-ylsulfanylmethyl]-1H-quinazolin-4-one]
EC50 [1]: 8.62 µM
Emax [2]: 107%

COc1ccccc1-n1c(SCc2nc(=O)c3cccc(F)c3[nH]2)nnc1-c1cccs1 [Example 57, 8-Fluoro-2-[4-(2-methoxy-phenyl)-5-thiophen-2-yl-4H-[1,2,4]triazol-3-ylsulfanylmethyl]-1H-quinazolin-4-one]
EC50 [1]: 0.14 µM
Emax: 106%

COc1ccccc1-n1c(SCc2nc(=O)c3cccc(C)c3[nH]2)nnc1-c1cccs1 [Example 58, 2-[4-(2-Methoxy-phenyl)-5-thiophen-2-yl-4H-[1,2,4]triazol-3-ylsulfanylmethyl]-8-methyl-1H-quinazolin-4-one]
EC50 [1]: 0.547 µM
Emax [2]: 134%

COc1ccccc1-n1c(SCc2nc(=O)c3cc(C)ccc3[nH]2)nnc1-c1cccs1 [Example 59, 2-[4-(2-Methoxy-phenyl)-5-thiophen-2-yl-4H-[1,2,4]triazol-3-ylsulfanylmethyl]-6-methyl-1H-quinazolin-4-one]
EC50 [1]: 0.042 µM
Emax [2]: 121%

COc1ccccc1-n1c(SCc2nc(=O)c3ccc(C(F)(F)F)cc3[nH]2)nnc1-c1cccs1 [Example 60, 2-[4-(2-Methoxy-phenyl)-5-thiophen-2-yl-4H-[1,2,4]triazol-3-ylsulfanylmethyl]-7-trifluoromethyl-1H-quinazolin-4-one]
EC50 [1]: 0.569 µM
Emax [2]: 160%

COc1ccccc1-n1c(SCc2nc(=O)c3cc(Br)ccc3[nH]2)nnc1-c1cccs1 [Example 61, 6-Bromo-2-[4-(2-methoxy-phenyl)-5-thiophen-2-yl-4H-[1,2,4]triazol-3-ylsulfanylmethyl]-1H-quinazolin-4-one]
EC50 [1]: 0.0315 µM
Emax [2]: 80%

COc1ccccc1-n1c(SCc2nc(=O)c3cc(Cl)ccc3[nH]2)nnc1-c1cccs1 [Example 62, 6-Chloro-2-[4-(2-methoxy-phenyl)-5-thiophen-2-yl-4H-[1,2,4]triazol-3-ylsulfanylmethyl]-1H-quinazolin-4-one]
EC50 [1]: 0.0536 µM
Emax [2]: 116%

COc1ccccc1-n1c(SCc2nc(=O)c3ccc(F)cc3[nH]2)nnc1-c1cccs1 [Example 63, 7-Fluoro-2-[4-(2-methoxy-phenyl)-5-thiophen-2-yl-4H-[1,2,4]triazol-3-ylsulfanylmethyl]-1H-quinazolin-4-one]
EC50 [1]: 0.125 µM
Emax [2]: 108%

COc1ccccc1-n1c(SCc2nc(=O)c3cc(C(F)(F)F)ccc3[nH]2)nnc1-c1cccs1 [Example 64, 2-[4-(2-Methoxy-phenyl)-5-thiophen-2-yl-4H-[1,2,4]triazol-3-ylsulfanylmethyl]-6-trifluoromethyl-1H-quinazolin-4-one]
EC50 [1]: 0.365 µM
Emax [2]: 92%

COc1ccc2[nH]c(CSc3nnc(-c4cccs4)n3-c3ccccc3OC)nc(=O)c2c1 [Example 65, 6-Methoxy-2-[4-(2-methoxy-phenyl)-5-thiophen-2-yl-4H-[1,2,4]triazol-3-ylsulfanylmethyl]-1H-quinazolin-4-one]
EC50 [1]: 0.304 µM
Emax [2]: 101%

COc1ccccc1-n1c(SCc2nc(=O)c3ccc(Cl)cc3[nH]2)nnc1-c1cccs1 [Example 66, 7-Chloro-2-[4-(2-methoxy-phenyl)-5-thiophen-2-yl-4H-[1,2,4]triazol-3-ylsulfanylmethyl]-1H-quinazolin-4-one]
EC50 [1]: 0.482 µM
Emax [2]: 87%

COc1ccccc1-n1c(SCc2ccc3ccccc3n2)nnc1-c1cccs1 [Example 68, 2-[4-(2-Methoxy-phenyl)-5-thiophen-2-yl-4H-[1,2,4]triazol-3-ylsulfanylmethyl]-quinoline]
EC50 [1]: 0.211 µM
Emax [2]: 79%

COc1ccccc1-n1c(SCc2nc(=O)c3cc(OC(F)(F)F)ccc3[nH]2)nnc1-c1cccs1 [Example 69, 2-[4-(2-Methoxy-phenyl)-5-thiophen-2-yl-4H-[1,2,4]triazol-3-ylsulfanylmethyl]-6-trifluoromethoxy-1H-quinazolin-4-one]
EC50 [1]: 1.37 µM
Emax: 59%

COc1ccccc1-n1c(SCc2ccc(Cl)cc2)nnc1-c1cccs1 [Example 70, 3-(4-Chloro-benzylsulfanyl)-4-(2-methoxy-phenyl)-5-thiophen-2-yl-4H-[1,2,4]triazole]
EC50 [1]: 2.03 µM
Emax [2]: 134%

COc1ccccc1-n1c(SCc2ccc(Cl)c(Cl)c2)nnc1-c1cccs1 [Example 71, 3-(3,4-Dichloro-benzylsulfanyl)-4-(2-methoxy-phenyl)-5-thiophen-2-yl-4H-[1,2,4]triazole]
EC50 [1]: 1.22 µM
Emax [2]: 99%

COc1ccccc1-n1c(SCc2ccc([N+](=O)[O-])cc2)nnc1-c1cccs1 [Example 72, 4-(2-Methoxy-phenyl)-3-(4-nitro-benzylsulfanyl)-5-thiophen-2-yl-4H-[1,2,4]triazole]
EC50 [1]: 0.14 µM
Emax [2]: 106%

COc1ccccc1-n1c(SCc2cccc(F)c2)nnc1-c1cccs1 [Example 73, 3-(3-Fluoro-benzylsulfanyl)-4-(2-methoxy-phenyl)-5-thiophen-2-yl-4H-[1,2,4]triazole]
EC50 [1]: 10.2 µM
Emax [2]: 166%

COc1ccccc1-n1c(SCc2ccccc2F)nnc1-c1cccs1 [Example 74, 3-(2-Fluoro-benzylsulfanyl)-4-(2-methoxy-phenyl)-5-thiophen-2-yl-4H-[1,2,4]triazole]
EC50 [1]: 15 µM
Emax [2]: 80%

COc1ccccc1-n1c(SCc2ccc(C)cc2)nnc1-c1cccs1 [Example 75, 4-(2-Methoxy-phenyl)-3-(4-methyl-benzylsulfanyl)-5-thiophen-2-yl-4H-[1,2,4]triazole]
EC50 [1]: 2.74 µM
Emax [2]: 70%

COc1ccccc1-n1c(SCc2cccc(C)c2)nnc1-c1cccs1 [Example 76, 4-(2-Methoxy-phenyl)-3-(3-methyl-benzylsulfanyl)-5-thiophen-2-yl-4H-[1,2,4]triazole]
EC50 [1]: 11.3 µM
Emax [2]: 159%

COc1ccccc1-n1c(SCc2cc(F)cc(F)c2)nnc1-c1cccs1 [Example 77, 3-(3,5-Difluoro-benzylsulfanyl)-4-(2-methoxy-phenyl)-5-thiophen-2-yl-4H-[1,2,4]triazole]
EC50 [1]: 8.44 µM
Emax [2]: 111%

COc1ccccc1-n1c(SCc2ccncn2)nnc1-c1cccs1 [Example 78, 4-[4-(2-Methoxy-phenyl)-5-thiophen-2-yl-4H-[1,2,4]triazol-3-ylsulfanylmethyl]-pyrimidine]
EC50: > 10 µM
Emax: 50%

COc1ccccc1-n1c(-c2cccs2)cnc1SCc1cc(=O)n2cc(C)ccc2n1 [Example 79, 2-[1-(2-Methoxy-phenyl)-5-thiophen-2-yl-1H-imidazol-2-ylsulfanylmethyl]-7-methyl-pyrido[1,2-a]pyrimidin-4-one]
EC50 [1]: 1.92 µM
Emax: 54%

COc1ccccc1-n1c(-c2cccs2)cnc1OCc1csc(-c2ccccc2)n1 [Example 80]
EC50 [1]: > 10 µM
Emax [2]: 31%

COc1ccccc1-n1c(OCc2coc(-c3ccccc3)n2)nnc1-c1cccs1 [Example 81, 4-(2-Methoxy-phenyl)-3-(2-phenyl-oxazol-4-ylmethoxy)-5-thiophen-2-yl-4H-[1,2,4]triazole]
EC50 [1]: 0.238 µM
Emax [2]: 101%

COc1ccccc1-n1c(OCc2ccccc2)nnc1-c1cccs1 [Example 82, 3-(benzyloxy)-4-(2-methoxyphenyl)-5-(thiophen-2-yl)-4H-1,2,4-triazole]
EC50 [1]: > 10 µM
Emax [2]: 52%
